Publication PMC8955854, “The Peptide Hormone CNMa Influences Egg Production in the Mosquito Aedes aegypti” (Insects, 2022)
“Also recorded” adds a separate entry of the source.

How the values were obtained:
AeCNMaR-1a (AAEL024199) = AeCNMaR-1a (AAEL024199) (Aedes aegypti, UniProt A0A6I8U3V2); assay: Receptor activation, aequorin luminescence in CHO-K1 aeq cells expressing AeCNMaR-1a; type: cell-based
Text: The CNMa peptide was synthesized and HPLC purified (>90% purity) by Royobiotechs (Shanghai, China) based on the published sequence of the AeCNMa peptide sequence. Both the amidated (YMSLCHFKLCNMa) and the non-amidated (YMSLCHFKLCNM) were produced with a disulfide bridge between cysteines 5 and 10. The complete coding sequence of the two putative Ae. aegypti CNMa receptors (VectorBase genes AAEL024199 and AAEL018316, which we henceforth refer to as AeCNMaR-1a and AeCNMaR-1b, respectively) were commercially synthesized (Integrated DNA Technologies) and subsequently subcloned into a pcDNA3.1+ mammalian expression vector [24]. A Chinese hamster ovary cell line stably expressing the calcium-dependent bioluminescent protein aequorin (CHO-K1 aeq) was grown in Dulbecco’s modified eagles medium: nutrient F12 (DMEM:F12) media containing 10% heat-inactivated fetal bovine serum (FBS; Wisent, St. Bruno, QC, Canada), 200 μg/mL geneticin, and an antimycotic-antibiotic mixture as described previously. When cells reached 80–90% confluency, they were transfected using Lipofectamine 3000 transfection reagent following manufacturer recommendations (Life Technologies, Burlington, ON, Canada) to transiently express a mammalian construct in pcDNA3.1+ containing either of the two candidate CNMa receptors or mCherry (pcDNA3.1+ mCherry was a gift from Scott Gradia, Addgene plasmid #30125), the latter of which served as a negative control for the receptor functional assay. After 48 h following transfection, CHO-K1 aeq cells were harvested by dislodging from culture flasks using Dulbecco’s PBS containing EDTA and subsequently resuspended in receptor assay media.
Other Ae. aegypti peptides used in this study included “capability” (CAPA)-1 (GPTVGLFAFPRV-NH2), CAPA-2 (pQGLVPFPRV-NH2), AedaeCAPA-pyrokinin (PK) 1 (AGNSGANSGMWFGPRL-NH2), adipokinetic/corazonin-like peptide (ACP; pQVTFSRDWNA-NH2), adipokinetic hormone (AKH) (pQLTFTPSW-NH2), and corazonin (CRZ; pQTFQYSRGWTN-NH2). Serial dilutions of the peptide stocks were prepared in bovine serum albumin (BSA) assay media (DMEM:F12 media + 0.1% BSA + 1× antibiotic-antimycotic) to test concentrations ranging from 10 pM to 50 μM. Single concentrations of the various peptides were loaded into individual wells of white 96-well luminescence plates (Greiner Bio-One, Frickenhausen, Germany) with each peptide concentration tested in quadruplicate. CHO-K1 aeq cells expressing either of the two AeCNMa receptors or mCherry were prepared for the functional assay, as described above, and injected into each well of the 96-well luminescence plates by an automated injector unit integrated with the Synergy 2 Multi-Mode Microplate Reader (BioTek, Winooski, VT, USA). The kinetic luminescent response was measured for 10 s immediately following the application of the cells into the wells containing the different peptide treatments or the negative (i.e., BSA media alone) or positive (i.e., 50 μM ATP) controls as described previously. Data was assembled in Microsoft Excel and then analyzed in GraphPad Prism 7.02 (GraphPad Software, San Diego, CA, USA) where the dose–response curves from multiple biological replicates were used to determine the half maximal effective concentrations (EC50).

AeCNMaR-1b (AAEL018316) = AeCNMaR-1b (AAEL018316) (Aedes aegypti, UniProt A0A1S4G7J8); assay: Receptor activation, aequorin luminescence in CHO-K1 aeq cells expressing AeCNMaR-1b; type: cell-based; conditions: AeCNMaR-1b
Text: The CNMa peptide was synthesized and HPLC purified (>90% purity) by Royobiotechs (Shanghai, China) based on the published sequence of the AeCNMa peptide sequence. Both the amidated (YMSLCHFKLCNMa) and the non-amidated (YMSLCHFKLCNM) were produced with a disulfide bridge between cysteines 5 and 10. The complete coding sequence of the two putative Ae. aegypti CNMa receptors (VectorBase genes AAEL024199 and AAEL018316, which we henceforth refer to as AeCNMaR-1a and AeCNMaR-1b, respectively) were commercially synthesized (Integrated DNA Technologies) and subsequently subcloned into a pcDNA3.1+ mammalian expression vector [24]. A Chinese hamster ovary cell line stably expressing the calcium-dependent bioluminescent protein aequorin (CHO-K1 aeq) was grown in Dulbecco’s modified eagles medium: nutrient F12 (DMEM:F12) media containing 10% heat-inactivated fetal bovine serum (FBS; Wisent, St. Bruno, QC, Canada), 200 μg/mL geneticin, and an antimycotic-antibiotic mixture as described previously. […]
Other Ae. aegypti peptides used in this study included “capability” (CAPA)-1 (GPTVGLFAFPRV-NH2), CAPA-2 (pQGLVPFPRV-NH2), AedaeCAPA-pyrokinin (PK) 1 (AGNSGANSGMWFGPRL-NH2), adipokinetic/corazonin-like peptide (ACP; pQVTFSRDWNA-NH2), adipokinetic hormone (AKH) (pQLTFTPSW-NH2), and corazonin (CRZ; pQTFQYSRGWTN-NH2). […] Single concentrations of the various peptides were loaded into individual wells of white 96-well luminescence plates (Greiner Bio-One, Frickenhausen, Germany) with each peptide concentration tested in quadruplicate. CHO-K1 aeq cells expressing either of the two AeCNMa receptors or mCherry were prepared for the functional assay, as described above, and injected into each well of the 96-well luminescence plates by an automated injector unit integrated with the Synergy 2 Multi-Mode Microplate Reader (BioTek, Winooski, VT, USA). The kinetic luminescent response was measured for 10 s immediately following the application of the cells into the wells containing the different peptide treatments or the negative (i.e., BSA media alone) or positive (i.e., 50 μM ATP) controls as described previously. Data was assembled in Microsoft Excel and then analyzed in GraphPad Prism 7.02 (GraphPad Software, San Diego, CA, USA) where the dose–response curves from multiple biological replicates were used to determine the half maximal effective concentrations (EC50).

[1] = tested on: CHO K1 aeq mCherry-expressing cells; assay: Negative control: luminescence in CHO-K1 aeq cells expressing mCherry; type: cell-based, Chinese hamster; conditions: 1 µM peptide; CHO K1 aeq cells transfected with pcDNA3.1+ mCherry
Text: The CNMa peptide was synthesized and HPLC purified (>90% purity) by Royobiotechs (Shanghai, China) based on the published sequence of the AeCNMa peptide sequence. Both the amidated (YMSLCHFKLCNMa) and the non-amidated (YMSLCHFKLCNM) were produced with a disulfide bridge between cysteines 5 and 10. The complete coding sequence of the two putative Ae. aegypti CNMa receptors (VectorBase genes AAEL024199 and AAEL018316, which we henceforth refer to as AeCNMaR-1a and AeCNMaR-1b, respectively) were commercially synthesized (Integrated DNA Technologies) and subsequently subcloned into a pcDNA3.1+ mammalian expression vector [24]. […]
Other Ae. aegypti peptides used in this study included “capability” (CAPA)-1 (GPTVGLFAFPRV-NH2), CAPA-2 (pQGLVPFPRV-NH2), AedaeCAPA-pyrokinin (PK) 1 (AGNSGANSGMWFGPRL-NH2), adipokinetic/corazonin-like peptide (ACP; pQVTFSRDWNA-NH2), adipokinetic hormone (AKH) (pQLTFTPSW-NH2), and corazonin (CRZ; pQTFQYSRGWTN-NH2). […] Single concentrations of the various peptides were loaded into individual wells of white 96-well luminescence plates (Greiner Bio-One, Frickenhausen, Germany) with each peptide concentration tested in quadruplicate. […]

Ae. aegypti females = assay: Egg laying after injection into mated, blood-fed females; type: in vivo, Aedes aegypti
Experimental: (§1) Three- to five-day-old mated females were blood-fed as detailed above, and groups were injected with a range of CNMa in 0.5 μL of saline or saline alone (AS) for a control. Females were allowed to recover and then housed individually in mesh cages. At 3 d PBM, a wet paper towel was provided to the females to facilitate egg laying for up to 48 h and then the number of eggs was counted. To assess possible interactions of CNMa with OEH and ILP3, mated females were blood-fed then decapitated and injected at 1 h PBM with 150 pmol of CNMa, OEH, or ILP3, or combinations of each hormone. Ovaries were dissected at 24 h PBM and yolk deposition was measured along the anterior–posterior axis for five oocytes from each individual, using an ocular micrometer fitted to a dissecting microscope. For CNMa and JH experiments, pupae were isolated in eclosion chambers for 6 h and females were collected. Females were divided into two groups, one which was immediately injected with 150 pmol of CNMa or saline. The other half of the cohort was held for an additional 8 h then injected with the same solutions. At 3 d post-eclosion, females were blood-fed and oviposition was measured for all treatment groups.
Figure 5 AeCNMa reduces egg clutch size in mated Ae. aegypti females. […] After three days females were allowed to oviposit and eggs were counted 48 h later. […]

[2] = tested on: Ae. aegypti females (decapitated); assay: Yolk deposition in blood-fed decapitated females; type: in vivo, Aedes aegypti
Experimental: as §1
Average amount of yolk per oocyte in mated, blood fed, decapitated females injected with combinations of CNMa (150 pmol), ILP3 (20 pmol), and OEH (20 pmol), Aedes saline (AS), or not injected (intact or decapitation only) at one-hour post blood meal. Error bars show one standard error above and below the mean.

[3] = tested on: JH-responsive gene kruppel-homolog 1 (kh-1); assay: kh-1 transcript abundance (qPCR) after injection into females; type: in vivo, Aedes aegypti; conditions: CNMa or saline injected females
Experimental: (§2) Cohorts of female Ae. aegypti were sampled 8 to 10 days post-eclosion, pre-blood meal (NBF), then at 2, 4, 6, 8, 12, 24, 48, and 72 h PBM. Four or more females from each timepoint were dissected in cold, RNase-free PBS into head, midgut, ovaries, and abdominal body wall and fat body (“pelt”). Tissue samples were immediately frozen and stored at −80 °C. Tissues were thawed on ice, homogenized with a rotor type pestle, and then total RNA was extracted using the RNeasy Mini kit (Qiagen, Venlo, The Netherlands) according to the manufacturer’s instructions. RNA was treated with DNase using the Turbo DNA-free kit (Ambion, Austin, TX, USA). cDNA was synthesized from 100 ng of RNA with the iScript cDNA synthesis kit (BioRad, Hercules, CA, USA) and used as template in qPCR using the Quantifast SYBR Green PCR kit (Qiagen). The primers for each product are listed in Table S1. qPCR was performed on the Qiagen Rotorgene as described in [28]. Absolute standard curves were produced by cloning each qPCR product into the pSCA vector using the Strataclone PCR cloning kit (Agilent, Santa Clara, CA, USA) and preparing plasmid standards of a known copy number. For comparisons between mating status, the copy number of each target was normalized to the copy number of ribosomal protein S7.
(§3) For e74, expression is relative to e74 expression in AS-treated insects.

[4] = tested on: ecdysteroid-responsive gene e74; assay: e74 transcript abundance (qPCR) after injection into females; type: in vivo, Aedes aegypti; conditions: CNMa or saline injected females, qPCR relative to AS-treated, MANOVA e74: F3,19 = 0.8192, p = 0.50
Experimental: as §2, §3

AeCNMaR-1a (AAEL024199), sequence (A0A6I8U3V2 entry or part of it): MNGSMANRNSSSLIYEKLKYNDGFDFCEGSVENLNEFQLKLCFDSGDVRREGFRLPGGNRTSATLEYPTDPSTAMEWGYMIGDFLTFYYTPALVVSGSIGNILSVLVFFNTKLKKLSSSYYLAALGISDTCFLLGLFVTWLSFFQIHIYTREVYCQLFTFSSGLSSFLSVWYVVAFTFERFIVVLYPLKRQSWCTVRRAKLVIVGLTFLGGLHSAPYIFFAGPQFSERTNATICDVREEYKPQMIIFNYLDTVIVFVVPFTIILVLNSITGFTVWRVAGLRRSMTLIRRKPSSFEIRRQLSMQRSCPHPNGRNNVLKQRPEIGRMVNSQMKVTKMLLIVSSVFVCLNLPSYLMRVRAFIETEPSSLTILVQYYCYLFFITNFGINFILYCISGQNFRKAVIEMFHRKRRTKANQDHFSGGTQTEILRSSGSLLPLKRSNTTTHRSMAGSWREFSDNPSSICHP
AeCNMaR-1b (AAEL018316), sequence (A0A1S4G7J8 entry or part of it): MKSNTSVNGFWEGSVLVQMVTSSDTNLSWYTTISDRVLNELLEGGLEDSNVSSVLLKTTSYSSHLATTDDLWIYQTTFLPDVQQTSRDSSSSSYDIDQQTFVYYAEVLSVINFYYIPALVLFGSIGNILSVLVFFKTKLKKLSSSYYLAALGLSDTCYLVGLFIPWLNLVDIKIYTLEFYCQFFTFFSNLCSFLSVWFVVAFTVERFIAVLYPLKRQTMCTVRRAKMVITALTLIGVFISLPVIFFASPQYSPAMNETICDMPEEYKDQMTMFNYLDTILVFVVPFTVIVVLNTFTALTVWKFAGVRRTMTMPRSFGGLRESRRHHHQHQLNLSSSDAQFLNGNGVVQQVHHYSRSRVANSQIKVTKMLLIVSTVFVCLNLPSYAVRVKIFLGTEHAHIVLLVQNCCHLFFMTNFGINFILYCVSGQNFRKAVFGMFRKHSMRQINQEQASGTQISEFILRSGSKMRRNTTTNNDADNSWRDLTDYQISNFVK

## YMSLCHFKLCNMa (disulfide) [AeCNMa, Ae. aegypti CNMa peptide, amidated, HPLC purified (>90% purity)]
AeCNMaR-1a (AAEL024199); AeCNMaR-1a vs AeCNMaR-1b
  lower concentration activating AeCNMaR-1a than AeCNMaR-1b: ~ 10 fold
AeCNMaR-1a (AAEL024199); AeCNMaR-1a, amidated AeCNMa vs non-amidated AeCNM
  increase in sensitivity for the amidated peptide: 9 fold
AeCNMaR-1a (AAEL024199); AeCNMaR-1a, peptides tested at 1 µM, raw luminescence, one-way ANOVA and Dunnett's test
  luminescent response vs BSA media background: significant response several orders of magnitude over the BSA media background luminescent response
AeCNMaR-1b (AAEL018316); amidated AeCNMa vs non-amidated AeCNM
  greater sensitivity for the amidated peptide: 2.4 fold
AeCNMaR-1b (AAEL018316); peptides tested at 1 µM, raw luminescence, one-way ANOVA and Dunnett's test
  luminescent response vs BSA media background: significant response several orders of magnitude over the BSA media background luminescent response
[1]
  luminescence in mCherry-expressing control cells: No luminescence was detected
Ae. aegypti females; 150 pmol injected immediately post blood meal, mated, eggs counted after 3 d + 48 h oviposition, control Aedes saline (AS)
  number of eggs laid vs controls: laid significantly fewer eggs than controls; also recorded: produced significantly fewer eggs than controls (p = 0.0087, Wilcoxon rank-sum test)
Ae. aegypti females; injection into mated
  optimal dose (dose-response assay): 150 pmol
[2]; CNMa 150 pmol at 1 h post blood meal, decapitated females, vs decapitated only and AS control, Tukey's HSD
  yolk uptake, CNMa only: not significantly different from decapitated only and AS control treatments
[2]; CNMa 150 pmol, ILP3 20 pmol at 1 h post blood meal, vs ILP3 only and ILP3 and OEH, Tukey's HSD
  yolk uptake, CNMa and ILP3: no significant difference in yolk uptake
[2]; CNMa 150 pmol, ILP3 20 pmol, OEH 20 pmol at 1 h post blood meal, vs ILP3 + OEH injected females, Tukey's HSD
  yolk uptake, CNMa + OEH + ILP3: no significant difference in yolk uptake
[2]; CNMa 150 pmol, OEH 20 pmol at 1 h post blood meal, vs OEH only or OEH + ILP3, Tukey's HSD
  yolk uptake, OEH + CNMa: no significant difference in yolk uptake relative to OEH only or OEH + ILP3 treatments
[2]; decapitated blood-fed females, co-injection
  effect on yolk deposition elicited by OEH, ILP3, or both peptides together: did not affect yolk deposition elicited by OEH, ILP3, or both peptides together
[3]; MANOVA kh-1: F1,20 = 0.5141, p = 0.68
  kh-1 expression vs saline: no significant difference in their expression
[3]; MANOVA kh-1: F1,20 = 0.5141, p = 0.68, listed as CNMa
  kh-1 expression vs saline: did not significantly impact expression
[4]
  e74 expression vs saline: no significant difference in their expression
[4]; listed as CNMa
  e74 expression vs saline: did not significantly impact expression
